Experimental data taken from publication PMC10086023, “The effect of barium and strontium on activity of glucoamylase QsGH97a from Qipengyuania seohaensis SW-135” (Scientific Reports, 2023).

Test system: T1, QsGH97a
T1 construct: pSMT3 His-SUMO fusion in E. coli BL21(DE3), tag cut by Ulp1; probable dimer; forward primer encodes MIRHIALFI; catalytic Glu378, Glu459, Glu483
Test: p-nitrophenol release at […] nm, Michaelis-Menten fit
Format: biochemical, Qipengyuania seohaensis
Settings: 20 mM Tris-HCl pH 8.0, 50 °C, no added metal ion

Km: 200 ± 20 µM
Compound: O=[N+]([O-])c1ccc(O[C@H]2O[C@H](CO)[C@@H](O)[C@H](O)[C@H]2O)cc1 [pNPαGlu, p-Nitrophenyl-α-D-glucopyranoside]
